According to patent publication US8519163B2, “Anti-tumor activity of AECHL-1, novel triterpenoid isolated from Ailanthus excelsa in vitro and in vivo” (National Centre for Cell Science, priority 2008, dated 2013):
“And” between values parts separate entries of the source, which are not always exact repeats. Equal values may be shown once.

What was measured:
MCF-7 cells = test: Cell cycle analysis by flow cytometry; type: cell-based, human; details: for Phase of cell cycle (% of cells) G1 / Phase of cell cycle (% of cells) G2/M / Phase of cell cycle (% of cells) S / Phase of cell cycle (% of cells) Sub G0: 24 h
Description: (§1) The cell cycle analysis of MCF-7, B16F10 MDA-MB-231 and PC3 cells was done by flow cytometry. […] Cells were harvested with trypsin (0.05%), 0.02% EDTA, 0.05% glucose and a single-cell suspension was prepared. Cells were washed and were pelleted by centrifugation (1000×g for 2 min) and fixed in 70% ethanol while vortexing and stored at 4° C. for 1 hour. Fixed cells were pelleted by centrifugation, to remove ethanol and washed with PBS. Cells were re-suspended in PBS containing 50 μg/ml propidium iodide, 0.1 g/L RNase and 1% BSA, incubated for 30 min at 37° C. in the dark, and analyzed with flow cytometry (FACS Vantage-BD Sciences, USA) equipped with an argon laser at 488 nm. The data was analyzed using Cell Quest software for determining the percent population in different phases of cell cycle.

MDA-MB-231 cells = test: Cell cycle analysis by flow cytometry; type: cell-based, human; details: for Phase of cell cycle (% of cells) G1 / Phase of cell cycle (% of cells) G2/M / Phase of cell cycle (% of cells) S / Phase of cell cycle (% of cells) Sub G0: 24 h
Description: as §1

PC3 cells = test: Cell cycle analysis by flow cytometry; type: cell-based, human; details: for Phase of cell cycle (% of cells) G1 / Phase of cell cycle (% of cells) G2/M / Phase of cell cycle (% of cells) S / Phase of cell cycle (% of cells) Sub G0: 24 h
Description: as §1

p53 = test: Immunocytochemistry, p53 translocation in MCF-7 cells; type: cell-based, human; details: AECHL-1 2-40 μM, 24 h, confocal microscopy
Description: (§2) Immunocytochemistry was performed as described previously. […] Cells were incubated with primary anti-p53 antibodies (1:100; Abcam) and anti-α-tubulin antibodies (1:10000; Sigma chemical Co.) for 1 hour at room temperature. After washing with PBS, cells were incubated with CY2-conjugated secondary antibodies (1:200; Chemicon, Germany) and Alexa-conjugated secondary antibodies (1:10000; Sigma, St. Louis, Mo.) for 45 minutes and nuclear staining was done with DAPI. Images were captured under confocal microscope.
(§3) The tumor suppressor p53 plays a critical role in preventing human cancer formation. It translocates into the nucleus and works as a transcription factor by upregulating cell cycle regulatory proteins and induces cell cycle arrest and/or programmed cell death (apoptosis) (11). […] After 24 h of incubation, the p53 translocation in the nucleus (green fluorescence) and microtubule network (red fluorescence) was visualized by confocal microscopy.

[1] = tested on: cellular microtubule network; test: Immunocytochemistry, microtubule network in MCF-7 cells; type: cell-based, human; details: paclitaxel 1-20 μM, AECHL-1 2-40 μM, 24 h, confocal microscopy
Description: as §2, §3

B16F10 melanoma cells = test: In vivo allograft tumor model; set-up: species or system C57B1/6 mice; details: for tumor weight to body weight ratio: after 12 days treatment, vs control (p<0.01); for tumor size reduced by / tumor volume on day 24: B16F10 allograft; for tumor size reduced by: day 18; for histological examination of tumor tissue: C57 mice
Description: (§4) The data reported for tumor volumes are expressed as mean±SEM. Statistical differences were determined by ANOVA and post test applied was Tukey-Kramer multiple comparison Test. For Tumor to body weight ratio post test applied was Dunnett multiple comparisons test.

MCF-7 = test: In vivo xenograft tumor model; set-up: species or system athymic nude mice; details: for tumor size reduced by: MCF-7 xenograft
Description: as §4

[2] = mouse, in vivo
Description: Next, we examined the effects of AECHL-1 on the growth of primary tumor allografts and xenografts of B16F10 cells growing in C57B1/6 mice and MCF-7 cells growing in athymic nude mice respectively. […] On this basis, we chose a dose that was 10-20% of this maximum tolerated dose or 50 and 100 μg/kg/day, i.p. or the doses which induced maximum cell death in vitro.

SMILES: C=C1C(OCC)C2(O)OCC34C(=C(C)c5c(C)cc(O)c(OCC)c5C23)OC(=O)C(OC(=O)C(C)(O)CC)C14 (stereo not drawn) [AECHL-1]
- Phase of cell cycle (% of cells) G1 (MCF-7 cells; MCF-7, 4 μM): 35.04%
- Phase of cell cycle (% of cells) G2/M (MCF-7 cells; MCF-7, 4 μM): 36.65%
- Phase of cell cycle (% of cells) S (MCF-7 cells; MCF-7, 4 μM): 27.20%
- Phase of cell cycle (% of cells) Sub G0 (MCF-7 cells; MCF-7, 4 μM): 1.61%
- Phase of cell cycle (% of cells) G1 (MCF-7 cells; MCF-7, 10 μM): 27.85%
- Phase of cell cycle (% of cells) G2/M (MCF-7 cells; MCF-7, 10 μM): 36.78%
- Phase of cell cycle (% of cells) S (MCF-7 cells; MCF-7, 10 μM): 34.19%
- Phase of cell cycle (% of cells) Sub G0 (MCF-7 cells; MCF-7, 10 μM): 1.99%
- Phase of cell cycle (% of cells) G1 (MCF-7 cells; MCF-7, 20 μM): 29.68%
- Phase of cell cycle (% of cells) G2/M (MCF-7 cells; MCF-7, 20 μM): 31.98%
- Phase of cell cycle (% of cells) S (MCF-7 cells; MCF-7, 20 μM): 37.44%
- Phase of cell cycle (% of cells) Sub G0 (MCF-7 cells; MCF-7, 20 μM): 1.81%
- Phase of cell cycle (% of cells) G1 (MCF-7 cells; MCF-7, 40 μM): 36.26%
- Phase of cell cycle (% of cells) G2/M (MCF-7 cells; MCF-7, 40 μM): 29.42%
- Phase of cell cycle (% of cells) S (MCF-7 cells; MCF-7, 40 μM): 32.50%
- Phase of cell cycle (% of cells) Sub G0 (MCF-7 cells; MCF-7, 40 μM): 2.55%
- % of cells in G0/G1 phase (MCF-7 cells; MCF-7, 100 μM): 36.26%
- cell count in S-G2/M phase (MCF-7 cells; MCF-7, 100 μM, control 45.13): 69.4%
- phase of cell growth arrest (MCF-7 cells; MCF-7 cells): S-G2/M phase
- Phase of cell cycle (% of cells) G1 (MDA-MB-231 cells; MDA-231, 10 μM): 43.03%
- Phase of cell cycle (% of cells) G2/M (MDA-MB-231 cells; MDA-231, 10 μM): 32.21%
- Phase of cell cycle (% of cells) S (MDA-MB-231 cells; MDA-231, 10 μM): 24.06%
- Phase of cell cycle (% of cells) Sub G0 (MDA-MB-231 cells; MDA-231, 10 μM): 1.03%
- Phase of cell cycle (% of cells) G1 (MDA-MB-231 cells; MDA-231, 20 μM): 33.18%
- Phase of cell cycle (% of cells) G2/M (MDA-MB-231 cells; MDA-231, 20 μM): 38.01%
- Phase of cell cycle (% of cells) S (MDA-MB-231 cells; MDA-231, 20 μM): 28.63%
- Phase of cell cycle (% of cells) Sub G0 (MDA-MB-231 cells; MDA-231, 20 μM): 0.95%
- Phase of cell cycle (% of cells) G1 (MDA-MB-231 cells; MDA-231, 40 μM): 26.66%
- Phase of cell cycle (% of cells) G2/M (MDA-MB-231 cells; MDA-231, 40 μM): 45.14% and 45.15%
- Phase of cell cycle (% of cells) S (MDA-MB-231 cells; MDA-231, 40 μM): 28.12%
- Phase of cell cycle (% of cells) Sub G0 (MDA-MB-231 cells; MDA-231, 40 μM): 0.54%
- Phase of cell cycle (% of cells) G1 (MDA-MB-231 cells; MDA-231, 100 μM): 22.82%
- Phase of cell cycle (% of cells) G2/M (MDA-MB-231 cells; MDA-231, 100 μM): 46.17%
- Phase of cell cycle (% of cells) S (MDA-MB-231 cells; MDA-231, 100 μM): 30.99%
- Phase of cell cycle (% of cells) Sub G0 (MDA-MB-231 cells; MDA-231, 100 μM): 0.58%
- phase of cell growth arrest (MDA-MB-231 cells; MDA-MB 231 cells): S-G2/M phase
- Phase of cell cycle (% of cells) G1 (PC3 cells; PC3, 10 μM): 50.74%
- Phase of cell cycle (% of cells) G2/M (PC3 cells; PC3, 10 μM): 30.94%
- Phase of cell cycle (% of cells) S (PC3 cells; PC3, 10 μM): 16.21%
- Phase of cell cycle (% of cells) Sub G0 (PC3 cells; PC3, 10 μM): 1.66%
- Phase of cell cycle (% of cells) G1 (PC3 cells; PC3, 20 μM): 48.96%
- Phase of cell cycle (% of cells) G2/M (PC3 cells; PC3, 20 μM): 34.99%
- Phase of cell cycle (% of cells) S (PC3 cells; PC3, 20 μM): 13.99%
- Phase of cell cycle (% of cells) Sub G0 (PC3 cells; PC3, 20 μM): 1.79%
- Phase of cell cycle (% of cells) G1 (PC3 cells; PC3, 40 μM): 44.26%
- Phase of cell cycle (% of cells) G2/M (PC3 cells; PC3, 40 μM): 33.82%
- Phase of cell cycle (% of cells) S (PC3 cells; PC3, 40 μM): 17.71%
- Phase of cell cycle (% of cells) Sub G0 (PC3 cells; PC3, 40 μM): 4.14%
- Phase of cell cycle (% of cells) G1 (PC3 cells; PC3, 100 μM): 42.92%
- Phase of cell cycle (% of cells) G2/M (PC3 cells; PC3, 100 μM): 35.37%
- Phase of cell cycle (% of cells) S (PC3 cells; PC3, 100 μM): 18.25%
- Phase of cell cycle (% of cells) Sub G0 (PC3 cells; PC3, 100 μM): 3.36%
- cell count in S-G2/M phase (PC3 cells; PC3, 100 μM, vehicle 45.41%): 53.62%
- phase of cell growth arrest (PC3 cells; PC3 cells): S-G2/M phase
- p53 translocation in the nucleus (p53): translocation of the p53 into the nucleus
- effect on microtubule network [1]: thickening and increased density of microtubules
- tumor weight to body weight ratio (B16F10 melanoma cells; 50 μg): significant reduction
- tumor weight to body weight ratio (B16F10 melanoma cells; 100 μg): significant reduction
- tumor size reduced by (B16F10 melanoma cells; 50 μg intra-tumor for 12 days): 44.303±5.20%
- tumor volume on day 24 (B16F10 melanoma cells; 50 μg): increased
- tumor size reduced by (B16F10 melanoma cells; 100 μg intra-tumor for 12 days): 51.014±1.27%
- tumor volume on day 24 (B16F10 melanoma cells; 100 μg): increased
- histological examination of tumor tissue (B16F10 melanoma cells; 50 μg): Tumor cell density was found to be decreased with occurrence of picnotic/necrotic cells in the center of the tumor
- histological examination of tumor tissue (B16F10 melanoma cells; 100 μg): increase in necrotic nuclei through out the tumor area, with disappearance of neovasulization and hemorrhagic areas
- tumor size reduced by (MCF-7; 5 μg/0.05 ml intra-tumor for 10 days): 35.72±0.05%
- tumor size reduced by (MCF-7; 10 μg/0.05 ml intra-tumor for 10 days): 28.55±0.06%
- tumor size reduced by (MCF-7; 20 μg/0.05 ml intra-tumor for 10 days): 4.1±0.27%
- histological examination of tumor tissue (MCF-7; nude mice, 5 μg): decreased tumor cell density
- maximum tolerated dose [2]: 500 μg/mice
